Data as given in patent US20220401514A1, “ANTIMICROBIAL, BACTERIOPHAGE-DERIVED POLYPEPTIDES AND THEIR USE AGAINST GRAM-NEGATIVE AND ACID-FAST BACTERIA” (CONTRAFECT CORPORATION, priority 2019, published 2022).
Like-named read-outs stand apart in the source and are kept apart here.

How the values were obtained:
[1] = test system: carbapenem-resistant P. aeruginosa clinical isolate CFS-1292; test: MIC by modified CLSI broth microdilution against P. aeruginosa CFS-1292 (CAA, CAA + human serum); format: cell-based, Pseudomonas aeruginosa
Pseudomonas aeruginosa = test: microbe, parasite or virus in culture; format: cell-based; settings: P. aeruginosa isolates (n per peptide in table)
Enterobacter cloacae = test: microbe, parasite or virus in culture; format: cell-based
Outline: (§1)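 CAA + human serum as test medium; MIC read as lowest peptide concentration inhibiting growth.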

Escherichia coli = test: microbe, parasite or virus in culture; format: cell-based
Outline: as §1

Klebsiella pneumoniae = format: cell-based
Description: (§2) Determination of Minimal Inhibitory Concentrations (MIC).
(§3) Additional MIC testing was performed for several peptides against the ESKAPE pathogens Escherichia coli, Enterobacter cloacae, Klebsiella pneumoniae, and Acinetobacter baumannii, in CAA supplemented with human serum (Table D).

Acinetobacter baumannii = test: microbe, parasite or virus in culture; format: cell-based
S. maltophilia = test: MIC against S. maltophilia isolates; format: cell-based, Stenotrophomonas maltophilia
Outline: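 Chp peptides were tested on a set of S. maltophilia isolates (n = isolates per species), with minimal inhibitory concentrations given in μg/mL.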

[2] = test system: Pseudomonas aeruginosa, Escherichia coli, Enterobacter cloacae, Klebsiella pneumoniae, and Acinetobacter baumannii; test: MIC against a range of Gram-negative organisms (statements covering several species); format: cell-based; settings: Tables 40-44 isolates
Description: as §2, §3

[3] = test system: carbapenem-resistant bacterial strains; test: organism not typed; format: cell-based
Description: as §2

[4] = Stability assessment in 100% CAA; format: in vitro ADME; set-up: unit not given beside the values
Description: Stability was assessed after incubation in 100% human serum at 37° C. after 10 minutes, 1 hour, and 2 hours.
Stability assessment was further conducted in 100% CAA and rabbit serum using the same methodology discussed above.

M. smegmatis = test: 45 hr MIC against M. smegmatis (NTM), Mueller Hinton broth; format: cell-based, Mycobacterium smegmatis
M. fortuitum = test: 45 hr MIC against M. fortuitum (NTM); format: cell-based, Mycobacterium fortuitum; settings: M. fortuitum subsp. Fortuitum da Costa Cruz. ATCC 6841
M. avium = test: 45 hr MIC against M. avium (NTM); format: cell-based, Mycobacterium avium; settings: M. avium Chester ATCC 700898
M. scrofulaceum = test: 45 hr MIC against M. scrofulaceum (NTM); format: cell-based, Mycobacterium scrofulaceum; settings: M. scrofulaceum Prissick and Masson ATCC 19981
M. intracellulare = test: 45 hr MIC against M. intracellulare (NTM); format: cell-based, Mycobacterium intracellulare; settings: M. intracellulare (Cuttino and McCabe) Runyon ATCC 13950
[5] = test system: P. aeruginosa strain CFS-1292; test: MIC in presence and absence of NaCl (140 mM); format: cell-based, Pseudomonas aeruginosa
Description: Certain Chp peptides were evaluated over a range of physiological NaCl levels and pH values, and were further evaluated for activity in the presence of various divalent cations.

[6] = test system: P. aeruginosa strain CFS-1292; test: MIC at pH 6, pH 7 and pH 8; format: cell-based, Pseudomonas aeruginosa
Description: The Chp peptides were further evaluated at varying pH levels. The MIC values were determined at pH 6, pH 7, and pH 8 for 18 different Chp peptides against P. aeruginosa strain CFS-1292. […]

[7] = test system: P. aeruginosa strain CFS-1292; test: MIC in presence of divalent cations (calcium chloride, magnesium sulfate); format: cell-based, Pseudomonas aeruginosa
Description: Next, Chp peptides were evaluated in the presence of different divalent cations. […]; (2) in the presence of 2 mM calcium chloride alone; (3) in the presence of 1 mM magnesium sulfate alone; and (4) in the presence of both 2 mM calcium chloride and 1 mM magnesium sulfate. […]

[8] = test system: P. aeruginosa strain CFS-1292; test: MIC in presence and absence of Survanta pulmonary surfactant; format: cell-based, Pseudomonas aeruginosa
[9] = test system: P. aeruginosa strain CFS-1292; test: MIC in presence of mouse, rat, rabbit and human serum ([…] each); format: cell-based, Pseudomonas aeruginosa; settings: P. aeruginosa CFS-1292
Description: The activity of several Chp peptides against P. aeruginosa strain CFS-1292 in animal serum was evaluated. […] Rat, mouse, and rabbit serum were all obtained from pooled gender samples.

[10] = test system: M. kansasii Hauduroy ATCC 12478; test: 45 hr MIC against M. kansasii (NTM), Mueller Hinton broth; format: cell-based, Mycobacterium kansasii
[11] = test system: Mycobacterium tuberculosis strains
Description: MIC values for various Chp peptides were determined using the CLSI method for broth microdilution in 96-well microtiter format.
Next, MIC values for various Chp peptides were determined using the CLSI method above for broth microdilution in 96-well microtiter format for two different Mycobacterium tuberculosis strains. The MIC was determined as explained above for the NTM strains.

[12] = E. cloacae isolates (n per peptide in table)
[13] = E. coli isolates (n per peptide in table)
[14] = K. pneumoniae isolates (n per peptide in table)
[15] = A. baumannii isolates (n per peptide in table)
[16] = S. maltophilia isolates (n per peptide in table)

MRRRRLSRRTSRRFFRKGLKVRRRNLRARPMRGGFRI [Unp2]
>32 µg/mL: MIC BALB/C Mouse Serum ([9]; BALB/C mouse serum […])
active: activity against S. maltophilia (S. maltophilia; Table 45 isolates)
2 µg/mL: MIC ([3]; carbapenem-resistant isolate PA21) | 45 hr MIC (M. smegmatis; M. smegmatis MC^2 155, Run #1) | 45 hr MIC (M. fortuitum) | MIC, CAA + 140 mM NaCl ([5]; CAA + 140 mM NaCl, P. aeruginosa CFS-1292) | 45 hr MIC [10]
good activity: activity (good = MIC100 of ≤4) against all of P. aeruginosa, K. pneumoniae, A. baumannii, E. cloacae, and E. coli [2]
4: Fold change in MIC ([5]; CAA + 140 mM NaCl versus CAA without added NaCl)
0.125 µg/mL: MIC (Klebsiella pneumoniae; Klebsiella pneumoniae HM-44, CAA supplemented with human serum)
0.25 to 2 µg/mL: MIC Range (Enterobacter cloacae; [12]) | MIC Range (S. maltophilia; [16])
16 µg/mL: MIC (Enterobacter cloacae; Enterobacter cloacae ATCC 13047, CAA supplemented with human serum) | MIC ([11]; Mycobacterium tuberculosis (Zopf) Lehmann and Neumann ATCC 25177)
8 µg/mL: MIC Sprague Dawley Rat Serum ([9]; Sprague Dawley rat serum […])
0.25: MIC (100% CAA) [4]
0.25 µg/mL: MIC50 (Enterobacter cloacae; [12]) | MIC50 (Escherichia coli; [13]) | MIC (Escherichia coli; Escherichia coli ATCC 25922, CAA supplemented with human serum) | MIC ([7]; CAA media + 1 mM MgSO4) | MIC ([7]; CAA media + 2 mM CaCl2) | MIC ([7]; CAA media alone)
0.125 to 1 µg/mL: MIC Range (Escherichia coli; [13])
0.5 to 2 µg/mL: MIC Range (Pseudomonas aeruginosa)
0.5 µg/mL: MIC (μg/mL) against CFS-1292 in 100% CAA (1st run/2nd run) ([1]; 100% CAA, 1st run or single value) | MIC (μg/mL) against CFS-1292 in CAA + […] human serum ([1]; CAA + […] human serum) | MIC100 (Enterobacter cloacae; [12]) | MIC50 (Klebsiella pneumoniae; [14]) | MIC50 (Acinetobacter baumannii; [15]) | MIC100 (Acinetobacter baumannii; [15]) | MIC50 (S. maltophilia; [16]) | MIC ([3]; carbapenem-resistant isolate PA19) | MIC ([3]; carbapenem-resistant isolate WLC-452) | 45 hr MIC (M. avium) | MIC, CAA (no added NaCl) ([5]; CAA, no added NaCl, P. aeruginosa CFS-1292) | MIC ([6]; CAA media (pH 7)) | MIC ([6]; pH 6) | MIC ([6]; pH 7) | MIC ([6]; pH 8) | MIC ([7]; CAA media + + 1 mM MgSO4) | MIC ([8]; CAA media + 0.19 mg/mL Survanta) | MIC ([8]; CAA media + […] Survanta) | MIC ([8]; CAA media alone) | MIC CAA ([9]; CAA) | MIC Human Serum ([9]; human serum […])
0.25 to 1 µg/mL: MIC Range (Klebsiella pneumoniae; [14]) | MIC Range (Acinetobacter baumannii; [15])
4 µg/mL: 45 hr MIC (M. smegmatis; M. smegmatis MC^2 155, Run #2) | 45 hr MIC (M. scrofulaceum) | MIC New Zealand White Rabbit Serum ([9]; New Zealand White rabbit serum […]) | MIC ([11]; Mycobacterium tuberculosis (Zopf) Lehmann and Neumann ATCC 35817)
1 µg/mL: MIC50 (Pseudomonas aeruginosa) | MIC100 (Pseudomonas aeruginosa) | MIC100 (Escherichia coli; [13]) | MIC100 (Klebsiella pneumoniae; [14]) | MIC (Acinetobacter baumannii; Acinetobacter baumannii ATCC BAA 747, CAA supplemented with human serum) | MIC100 (S. maltophilia; [16]) | MIC ([3]; carbapenem-resistant isolate PA20) | MIC ([3]; carbapenem-resistant isolate PA22) | MIC ([3]; carbapenem-resistant isolate PA23) | MIC ([3]; carbapenem-resistant isolate PA24) | 45 hr MIC (M. intracellulare)
